We go through eight compounds from US12624012B2, “14-chloro-β-elemene nitric oxide donor derivative and preparation method and use thereof” (HANGZHOU NORMAL UNIVERSITY, priority 2021, dated 2026).

Like-named read-outs stand apart in the source and are kept apart here. Bounds are passed on as bounds.

For test [1], the system named is SW620. Briefly: In vitro anti-tumor activity evaluation test (CCK-8), SW620. In kind it is cell-based, human. The conditions noted are these: for inhibition at 1 µM: read-out: Inhibitory rates against tumor cell lines; for IC50: read-out: IC50 against different tumor cell lines. As to the method:
(§1) • (1) Cells were digested and counted. Cell suspensions (H520, SW620 5.0×10^4 cells/mL, and U87MG 3.5×10^4 cells/mL) were prepared. 100 μL of cell suspension was added to each well of a 96-well cell culture plate. • (2) The 96-well cell culture plate was incubated in a 37° C., 5%, CO2 incubator for 24 h. • (3) A drug was diluted with a culture medium to a desired working solution concentration. 100 μL of the corresponding drug-containing culture medium was added to each well. At the same time, a negative control group and a positive control group were set up. • (4) The 96-well cell culture plate was incubated in a 37° C., 5%, CO2 incubator for 72 h. • (5) The 96-well plate was stained with CCK-8, and at λ=450 nm, the OD value was determined. • 1) 10 μL of CCK-8 was added to each well. The culture plate continued to be incubated in the incubator for 2-3 h. • 2) The culture plate was rocked for 10 min to gently mix and remove air bubbles from the 96-well plate. • 3) At λ=450 nm, the OD value of each well was read by the enzyme marker, and the inhibitory rates were calculated. • (6) According to the following equation (1), the growth inhibitory rate of the tumor cells was obtained. The obtained results were substituted into an IC 50 calculation software SPSS17.0 to find out the IC50 value.

Test [2] concerns U87MG. As to the kind of experiment: In vitro anti-tumor activity evaluation test (CCK-8), U87MG. In kind it is cell-based, human. The following applies: 72 h; for inhibition at 1 µM: read-out: Inhibitory rates against tumor cell lines; for IC50: read-out: IC50 against different tumor cell lines. On the procedure:
as §1

Test [3] is described as follows: In vitro NO release test (incubation with L-cysteine, OD at 550 nm). The following applies: 100 μM solution with cysteine solution, 37° C. On the procedure: • (1) Sodium nitrite solutions with different concentrations were prepared. A calibration curve was drawn. • (2) The sample was treated. A 100 μM solution was prepared. 2.5 mL of the prepared compound solution and 2.5 mL of the cysteine solution were taken and incubated at 37° C. for 120 min, and the resulting mixture was sampled at different time points. • (3) A blank hole and a standard hole were set. 160 μL of the sample was collected and mixed evenly with 0.08 mL of a developer and stood at 37° C. for 15 min. At λ=550 nm, the OD value of absorbance was measured by the enzyme marker. The NO release levels were obtained by substituting the value into the standard curve.

For test [4], the system named is NCI-H520. As to the kind of experiment: In vitro anti-tumor activity evaluation test (CCK-8), NCI-H520. Type of test: cell-based, human. The following applies: for inhibition at 1 µM: read-out: Inhibitory rates against tumor cell lines; for IC50: read-out: IC50 against different tumor cell lines. As to the method:
as §1

The mark [5] stands for this setting: Homo sapiens, SW-620, SW620, 1 μM, 72 h.
Where [6] appears, read: Homo sapiens, U-87 MG, U87MG, 1 μM.
[7] abbreviates: Homo sapiens, NCI-H520, 1 μM, 72 h.

Usually IC50 stands for the concentration that inhibits the measured activity by half. Take `C=C[C@]1(C)CC[C@@H](C(=C)CN2CCC(COC(=O)CCCC(=O)OCCOc3no[n+]([O-])c3S(=O)(=O)c3ccccc3)CC2)C[C@H]1C(=C)CCl` [Example 14, 4-(2-((5-((1-(2-((1R,3R,4S)-3-(3-chloroprop-1-en-2-yl)-4-methyl-4-vinylcyclohexyl)allyl)piperidin-4-yl)methoxyl)-5-oxopentanoyl)oxy)ethyoxyl)-3-(phenylsulfonyl)-1,2,5-oxadiazole 2-oxide]: the inhibition at 1 µM was 55.4 ± 1.5% in test [1] (setting [5]), 54.8 ± 1.9% in test [2] (setting [6]) and 50.1 ± 1.1% in test [4] (setting [7]). Further, the IC50 in test [1] (Homo sapiens, SW-620, SW620, 72 h) was 814 ± 68 nM; in test [2] (Homo sapiens, U-87 MG, U87MG), 477 ± 11 nM; in test [4] (Homo sapiens, NCI-H520, 72 h) it was 846 ± 27 nM. Also, the NO-release concentrations in test [3] (5 min) turned out to be 12.34 µM; in test [3] (10 min), 13.53 µM; in test [3] (20 min) it was 15.94 µM; in test [3] (30 min), 18.96 µM; in test [3] (60 min), 29.94 µM; in test [3] (90 min), 45.42 µM. This compound also had an NO-release concentrations in test [3] (120 min) of 62.49 µM.
In the case of `C=C[C@]1(C)CC[C@@H](C(=C)CN2CCN(CCOC(=O)CCC(=O)OCCOc3no[n+]([O-])c3S(=O)(=O)c3ccccc3)CC2)C[C@H]1C(=C)CCl` [Example 21, 4-(2-((4-(2-(4-(2-((1R,3R,4S)-3-(3-chloroprop-1-en-2-yl)-4-methyl-4-vinylcyclohexyl)allyl)piperazin-1-yl)ethyoxyl)-4-oxobutanoyl)oxy)ethyoxyl)-3-(phenylsulfonyl)-1,2,5-oxadiazole 2-oxide], the inhibition at 1 µM in test [1] (setting [5]) is 43.6 ± 2.5%; in test [2] (setting [6]), 52.6 ± 1%; in test [4] (setting [7]) it was 47.3 ± 2.6%. The IC50 in test [2] (Homo sapiens, U-87 MG, U87MG) came to 926 ± 52 nM. Also, the NO-release concentrations in test [3] (5 min) turned out to be 0.08 µM; in test [3] (10 min) it was 0.41 µM; in test [3] (20 min), 0.99 µM; in test [3] (30 min) it was 1.64 µM; in test [3] (60 min) it was 2.98 µM; in test [3] (90 min), 6.43 µM. Also, the NO-release concentrations in test [3] (120 min) amounted to 10.20 µM.
Regarding `C=C[C@]1(C)CC[C@@H](C(=C)CN2CCC(OC(=O)CCCC(=O)OCC#CCOc3no[n+]([O-])c3S(=O)(=O)c3ccccc3)C2)C[C@H]1C(=C)CCl` (stereo partly drawn) [Example 12, 4-((4-((5-(((S)-1-(2-((1R,3R,4S)-3-(3-chloroprop-1-en-2-yl)-4-methyl-4-vinylcyclohexyl)allyl)pyrrolidine-3-ly)oxy)-5-oxopentanoyl)oxy)but-2-yn-1-yl)oxy)-3-(phenylsulfonyl)-1,2,5-oxadiazole 2-oxide], the inhibition at 1 µM in test [1] (setting [5]) was determined as 31.7 ± 1.4%; in test [2] (setting [6]) it was 47.8 ± 1.1%; in test [4] (setting [7]) it was 39.1 ± 0.7%. In test [2] (Homo sapiens, U-87 MG, U87MG), the IC50 is 898 ± 54 nM. The NO-release concentrations is 13.20 µM in test [3] (5 min); 16.04 µM in test [3] (10 min); 21.29 µM in test [3] (20 min); 26.90 µM in test [3] (30 min); 46.58 µM in test [3] (60 min); 74.45 µM in test [3] (90 min). In test [3] (120 min), the NO-release concentrations is 103.92 µM.
Consider `C=C[C@]1(C)CC[C@@H](C(=C)CN(CCOC(=O)CCCC(=O)OCCOc2no[n+]([O-])c2S(=O)(=O)c2ccccc2)C(C)C)C[C@H]1C(=C)CCl` [Example 6], for which the results for the inhibition at 1 µM in test [1] (setting [5]), in test [2] (setting [6]) and in test [4] (setting [7]) were 35.6 ± 2.8%, 54.3 ± 1.3% and 43.4 ± 1.5%, respectively. For the same compound, the IC50 in test [2] (Homo sapiens, U-87 MG, U87MG) is 366 ± 19 nM. Besides, the NO-release concentrations in test [3] (5 min) is 3.38 µM; in test [3] (10 min) it was 5.87 µM; in test [3] (20 min), 4.62 µM; in test [3] (30 min) it was 6.22 µM; in test [3] (60 min) it was 9.97 µM; in test [3] (90 min) it was 15.53 µM. In test [3] (120 min), this compound registered an NO-release concentrations of 20.60 µM.
Turning to `C=C[C@]1(C)CC[C@@H](C(=C)CN2CCCC(COC(=O)CCCC(=O)OCCOc3no[n+]([O-])c3S(=O)(=O)c3ccccc3)C2)C[C@H]1C(=C)CCl` (stereo partly drawn) [Example 18, 4-(2-((5-((1-(2-((1R,3R,4S)-3-(3-chloroprop-1-en-2-yl)-4-methyl-4-vinylcyclohexyl)allyl)piperidin-3-yl)methoxyl)-5-oxopentanoyl)oxy)ethyoxyl)-3-(phenylsulfonyl)-1,2,5-oxadiazole 2-oxide], the inhibition at 1 µM came out at 46.1 ± 0.9% in test [1] (setting [5]), 48.3 ± 1.5% in test [2] (setting [6]) and 43.9 ± 1% in test [4] (setting [7]). The NO-release concentrations is 8.89 µM in test [3] (5 min); 10.18 µM in test [3] (10 min); 12.42 µM in test [3] (20 min); 14.32 µM in test [3] (30 min); 21.50 µM in test [3] (60 min); 32.40 µM in test [3] (90 min). In addition, the NO-release concentrations in test [3] (120 min) was determined as 42.83 µM. In addition, the IC50 in test [4] (Homo sapiens, NCI-H520, 72 h) was determined as 1210 ± 152 nM.
On to `C=C[C@]1(C)CC[C@@H](C(=C)CN(C)CCOC(=O)CCC(=O)OCC#CCOc2no[n+]([O-])c2S(=O)(=O)c2ccccc2)C[C@H]1C(=C)CCl` [Example 3, 4-((4-((4-(2-((2-((1R,3R,4S)-3-(3-chloroprop-1-en-2-yl)-4-methyl-4-vinylcyclohexyl)allyl)(methyl)amino)ethyoxyl)-4-oxobutanoyl)oxy)but-2-yn-1-yl)oxy)-3-(phenylsulfonyl)-1,2,5-oxadiazole 2-oxide], for which the inhibition at 1 µM was determined as 30.1 ± 5.2% in test [1] (setting [5]), 34.9 ± 0.6% in test [2] (setting [6]) and 35 ± 2.2% in test [4] (setting [7]). The NO-release concentrations was 10.78 µM in test [3] (5 min); 12.02 µM in test [3] (10 min); 15.83 µM in test [3] (20 min); 19.79 µM in test [3] (30 min); 32.99 µM in test [3] (60 min); 48.39 µM in test [3] (90 min). The compound further registered an NO-release concentrations in test [3] (120 min) of 58.84 µM.
Take `C=CC1(C)CCC(C(=C)CCl)CC1C(=C)CCl` (stereo not drawn) [13,14-dichloro-β-elemene, reference compound]: the “Inhibitory rates against tumor cell lines” value in test [1] (SW620, 1 μM, 72 h) turned out to be 3.3 ± 1.0%; in test [2] (U87MG, 1 μM), 3.5 ± 1.0%; in test [4] (NCI-H520, 1 μM, 72 h) it was 0.9 ± 3.0%. Moreover, the IC50 in test [1] (SW620, 72 h) was over 100000 nM; in test [2] (U87MG) it was over 100000 nM; in test [4] (NCI-H520, 72 h) it was over 100000 nM.
For the compound `C=C[C@]1(C)CC[C@@H](C(=C)CN(CCOC(=O)CCC(=O)OCC#CCOc2no[n+]([O-])c2S(=O)(=O)c2ccccc2)C(C)C)C[C@H]1C(=C)CCl` [Example 7, 4-((4-((4-(2-((2-((1R,3R,4S)-3-(3-chloroprop-1-en-2-yl)-4-methyl-4-vinylcyclohexyl)allyl)(isopropyl)amino)ethyoxyl)-4-oxobutanoyl)oxy)but-2-yn-1-yl)oxy)-3-(phenylsulfonyl)-1,2,5-oxadiazole 2-oxide], the IC50 in test [1] (Homo sapiens, SW-620, 72 h) was determined as 1110 ± 115 nM; in test [2] (Homo sapiens, U-87 MG) it was 882 ± 34 nM. For the same compound, the inhibition at 1 µM in test [1] (Homo sapiens, SW-620, 72 h) turned out to be 46.6 ± 1.2%; in test [2] (Homo sapiens, U-87 MG) it was 56.7 ± 0.9%; in test [4] (Homo sapiens, NCI-H520, 72 h), 44.5 ± 2.2%.
